The values below are quoted from earlier work in patent US6544543B1, “Periodic constriction of vessels to treat ischemic tissue” (Advanced Cardiovascular Systems, Inc., priority 2000, dated 2003).

For data set [1] the following is noted: avidin tetramer-biotin noncovalent interaction.
For data set [2] the following is noted: avidin tetramer binds four biotin molecules in solution, noncovalent interaction.

In the case of “avidin: polypeptide of at least 128 amino acid residues, forms a tetramer, binds four biotin molecules; member of the affinity pair”, in data set [1], the half-life in vivo result was “about 89 days”. For the same substance, in data set [2], the binding constant result is given as “about 10^15 M^−1”.
